These results are taken from US10005767B2, “Compositions and methods for inhibition of the JAK pathway” (Rigel Pharmaceuticals, Inc., priority 2009, dated 2018).

Molecules are shown by their SMILES. pIC50: −log10 of the molar value. Structures can show the parent of a compound that is named as a salt.

The first test relates to human primary T-cells, IL-2 stimulated proliferation (JAK-1 and JAK-3 dependent; reported as JAK3 activity). Kind of test: Human primary T-cell proliferation stimulated by IL-2 (Example 3). The following applies: Homo sapiens, T-cell, tested under conditions described in Example 3 (IL-2 stimulated human primary T-cell proliferation); read-out: ability to inhibit JAK3 activity, IC50 range (Table V). It counts as cell-based. The method in brief: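 Peripheral-blood human T-cells pre-activated via TCR/CD28, IL-2-starved overnight, then cultured 72 h at 37 °C with compound in Yssel's medium containing IL-2 (80 U/mL in cell suspension). Proliferation read as viable-cell ATP by CellTiter-Glo luminescence; reduction versus control taken as JAK pathway inhibition.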
As to `COc1cc(Nc2ncc(C)c(Nc3cc(C)c4oc(=O)[nH]c4c3)n2)cc(C)c1OC` [Compound I-453, 5-(2-(3,4-dimethoxy-5-methylphenylamino)-5-methylpyrimidin-4-ylamino)-7-methylbenzo[d]oxazol-2(3H)-one], the pIC50 was more than 6.30.

Consider `Cc1cnc(Nc2ccc3c(c2)CCCN(C)C3=O)nc1Nc1ccc2oc(=O)[nH]c2c1` [IV-21, 5-(5-methyl-2-(2-methyl-1-oxo-2,3,4,5-tetrahydro-1H-benzo[c]azepin-7-ylamino)pyrimidin-4-ylamino)benzo[d]oxazol-2(3H)-one], for which the pIC50 was more than 6.30.

With `Cc1cnc(Nc2cnc(C3CC4CCC(C3)N4CC3CC3)c(C)c2)nc1Nc1ccc2oc(=O)[nH]c2c1` (stereo not shown) [II-67, 5-(2-(6-(8-(cyclopropylmethyl)-8-aza-bicyclo[3.2.1]octan-3-yl)-5-methylpyridin-3-ylamino)-5-methylpyrimidin-4-ylamino)benzo[d]oxazol-2(3H)-one], the pIC50 was more than 6.30.

For `COc1ccc(Nc2ncc(C)c(Nc3cc(F)c4oc(=O)[nH]c4c3)n2)cc1C` [Compound I-431, 7-fluoro-5-(2-(4-methoxy-3-methylphenylamino)-5-methylpyrimidin-4-ylamino)benzo[d]oxazol-2(3H)-one], the negative-log IC50 (pIC50) was more than 6.30.

With `Cc1cnc(Nc2ccc3cn[nH]c3c2)nc1Nc1ccc2oc(=O)[nH]c2c1` [IV-4, N4-(benzo[d]oxazol-2(3H)-on-5-yl)-N2-(1H-indazol-6-yl)-5-methylpyrimidine-2,4-diamine], the negative logarithm of the IC50 (pIC50) was more than 6.30.

Turning to `COc1cc(Nc2ncc(C)c(Nc3ccc4oc(=O)[nH]c4c3)n2)cc(C(C)O)c1` (stereo not shown) [Compound I-423, 5-(2-(3-(1-hydroxyethyl)-5-methoxyphenylamino)-5-methylpyrimidin-4-ylamino)benzo[d]oxazol-2(3H)-one], the pIC50 is more than 6.30.

Turning to `Cc1cnc(Nc2cccc(NS(C)(=O)=O)c2)nc1Nc1ccc2[nH]c(=O)[nH]c2c1` [Compound I-54, N2-(3-(methylsulfonylamino)phenyl)-N4-(1H-benzo[d]imidazol-2(3H)-on-5-yl)-5-methylpyrimidine-2,4-diamine], the pIC50 is more than 6.30.

For `Cc1cc(C)cc(Nc2ncc(C)c(Nc3cc(C)c4oc(=O)[nH]c4c3)n2)c1` [Compound I-474, 5-(2-(3,5-dimethylphenylamino)-5-methylpyrimidin-4-ylamino)-7-methylbenzo[d]oxazol-2(3H)-one], the pIC50 was more than 6.30.

With `Cc1cnc(Nc2cnc(N3CC4CCC(C3)N4C)c(C)c2)nc1Nc1ccc2oc(=O)[nH]c2c1` [II-64, 5-(5-methyl-2-(5-methyl-6-(8-methyl-3,8-diaza-bicyclo[3.2.1]octan-3-yl)pyridin-3-ylamino)pyrimidin-4-ylamino)benzo[d]oxazol-2(3H)-one], the pIC50 was more than 6.30.

In the case of `Cc1ccc(Nc2ncc(C)c(Nc3ccc4oc(=O)[nH]c4c3)n2)cc1C#N` [Compound I-131, 2-Methyl-5-[5-methyl-4-(2-oxo-2,3-dihydro-benzooxazol-5-ylamino)-pyrimidin-2-ylamino]-benzonitrile], the pIC50 is more than 6.30.

On to `CCNC(=O)c1ccc(Nc2ncc(C)c(Nc3ccc4oc(=O)[nH]c4c3)n2)cc1` [Compound I-137, N-Ethyl-4-[5-methyl-4-(2-oxo-2,3-dihydro-benzooxazol-5-ylamino)-pyrimidin-2-ylamino]-benzamide], for which the pIC50 was more than 6.30.

Turning to `COc1ccc(Nc2ncc(C)c(Nc3cc(C)c4oc(=O)[nH]c4c3)n2)cc1C` [Compound I-429, 5-(2-(4-methoxy-3-methylphenylamino)-5-methylpyrimidin-4-ylamino)-7-methylbenzo[d]oxazol-2(3H)-one], the pIC50 is more than 6.30.

For the compound `Cc1cnc(Nc2ccccc2F)nc1Nc1ccc2oc(=O)[nH]c2c1` [Compound I-468, 5-[2-(2-Fluoro-phenylamino)-5-methyl-pyrimidin-4-ylamino]-3H-benzooxazol-2-one], the pIC50 was more than 6.30.

Turning to `Cc1cnc(Nc2cnc(N3C[C@@H]4C[C@H]3CN4C)c(C#N)c2)nc1Nc1ccc2oc(=O)[nH]c2c1` [II-115, N4-(benzo[d]oxazolin-2(3H)-one-5-yl)-N2-[3-cyano-2-((1S,4S)-5-methyl-2,5-diazabicyclo[2.2.1]heptan-2-yl)pyridine-5-yl]-5-methyl-2,4-pyrimidinediamine], the pIC50 was more than 6.30.

Take `CCCn1c(=O)oc2ccc(Nc3nc(Nc4ccc(N5CCN(C)CC5)nc4)ncc3C)cc21` [II-4, N4-(3-n-propylbenzo[d]oxazol-2(3H)-on-5-yl)-N2-(6-(4-methylpiperazin-1-yl)pyridin-3-yl)-5-methylpyrimidine-2,4-diamine]: the pIC50 was more than 6.30.

With `Cc1cnc(Nc2ccc(F)c(S(C)(=O)=O)c2)nc1Nc1cc(F)c2oc(=O)[nH]c2c1` [Compound I-250, 7-fluoro-5-(2-(4-fluoro-3-(methylsulfonyl)phenylamino)-5-methylpyrimidin-4-ylamino)benzo[d]oxazol-2(3H)-one], the pIC50 is more than 6.30.

As for `Cc1cnc(Nc2cc(Br)cc(C(F)(F)F)c2)nc1Nc1ccc2oc(=O)[nH]c2c1` [Compound I-189, 5-[2-(3-Bromo-5-trifluoromethyl-phenylamino)-5-methyl-pyrimidin-4-ylamino]-3H-benzooxazol-2-one], the pIC50 was more than 6.30.

As for `Cc1cnc(Nc2ccc(C(=O)NC3CCC3)c(C(F)(F)F)c2)nc1Nc1ccc2oc(=O)[nH]c2c1` [Compound I-218, N-cyclobutyl-4-(5-methyl-4-(2-oxo-2,3-dihydrobenzo[d]oxazol-5-ylamino)pyrimidin-2-ylamino)-2-(trifluoromethyl)benzamide], the pIC50 was more than 6.30.

In the case of `Cc1cnc(Nc2ccc(F)c(-c3ccncc3)c2)nc1Nc1ccc2oc(=O)[nH]c2c1` [Compound I-471, 5-(2-(4-fluoro-3-(pyridin-4-yl)phenylamino)-5-methylpyrimidin-4-ylamino)benzo[d]oxazol-2(3H)-one], the pIC50 is more than 6.30.

With `Cc1cnc(Nc2cc(Cl)cc(Br)c2)nc1Nc1ccc2oc(=O)[nH]c2c1` [Compound I-185, 5-[2-(3-Bromo-5-chloro-phenylamino)-5-methyl-pyrimidin-4-ylamino]-3H-benzooxazol-2-one], the negative logarithm of the IC50 (pIC50) is less than 5.00.

Still in this test, the particulars now being: tested under conditions described in Example 3 (IL-2 stimulated human primary T-cell proliferation); read-out: ability to inhibit JAK3 activity, IC50 range (Table V).
For `Cc1cnc(Nc2ccc(N3CCSCC3)c(C#N)c2)nc1Nc1ccc2oc(=O)[nH]c2c1` [Compound I-339, N2-(3-cyano-4-thiomorpholino)phenyl-5-methyl-N4-(2-oxo-2,3-dihydro-1,3-benzoxazol-5-yl)-2,4-pyrimidinediamine], the pIC50 was more than 6.30.

In the case of `COC(=O)c1ccc(Nc2ncc(C)c(Nc3ccc4oc(=O)[nH]c4c3)n2)cc1OC` [Compound I-336, N2-(3-methoxy-4-methoxycarbonyl)phenyl-5-methyl-N4-(2-oxo-2,3-dihydro-1,3-benzoxazol-5-yl)-2,4-pyrimidinediamine], the pIC50 was more than 6.30.

For `Cc1cnc(Nc2ccc(-c3ccncc3)c(Cl)c2)nc1Nc1ccc2oc(=O)[nH]c2c1` [Compound I-329, N2-[3-chloro-4-(pyridin-4-yl)]phenyl 5-methyl-N4-(2-oxo-2,3-dihydro-1,3-benzoxazol-5-yl)-2,4-pyrimidinediamine], the negative-log IC50 (pIC50) is 5.30 to 6.30.

`Cc1cnc(Nc2ccc(N3CCN4CCC[C@@H]4C3)nc2)nc1Nc1ccc2oc(=O)[nH]c2c1` [II-132, N2-[2-(R-1,4-diazabicylco[4.3.0]nonan-4-yl)pyridin-5-yl]-5-methyl-N4-(2-oxo-2,3-dihydro-1,3-benzoxazol-5-yl)-2,4-pyrimidinediamine]: the pIC50 was more than 6.30.

With `Cc1cnc(Nc2cccc(NS(C)(=O)=O)c2)nc1Nc1ccc2oc(=O)[nH]c2c1` [Compound I-55, N4-(benzo[d]oxazol-2(3H)-on-5-yl)-N2-(3-methylsulfonylamino)phenyl)-5-methylpyrimidine-2,4-diamine formate salt], the pIC50 was more than 6.30.

Regarding `CC(=O)N1CCN(c2cccc(Nc3ncc(C)c(Nc4ccc5oc(=O)[nH]c5c4)n3)c2)CC1` [Compound I-345, N2-[3-(4-acetyl)piperazino]phenyl-5-methyl-N4-(2-oxo-2,3-dihydro-1,3-benzoxazol-5-yl)-2,4-pyrimidinediamine], the pIC50 was more than 6.30.

Turning to `Cn1c(=O)n(C)c2cc(Nc3nc(Nc4ccc(NS(C)(=O)=O)cc4)ncc3F)ccc21` [Compound I-43, N4-(1,3-dimethylbenzimidazolin-2-on-5-yl)-N2-((4-methylsulfonylamino)phenyl)-5-fluoropyrimidine-2,4-diamine], the pIC50 is 5.30 to 6.30.

As for `Cc1cnc(Nc2cccc(N3CCOCC3)c2)nc1Nc1ccc2c(c1)oc(=O)n2C` [Compound I-49, N4-(3-methylbenzo[d]oxazol-2(3H)-on-6-yl)-N2-((3-morpholinyl)phenyl)-5-methylpyrimidine-2,4-diamine], the pIC50 was more than 6.30.

`Cc1cnc(Nc2ccc(OC(C)(C)C(N)=O)cc2)nc1Nc1ccc2oc(=O)[nH]c2c1` [Compound I-324, N2-[4-(1-aminocarbonyl-1-methyl)ethoxy]phenyl-5-methyl-N4-(2-oxo-2,3-dihydro-1,3-benzoxazol-5-yl)-2,4-pyrimidinediamine]: the pIC50 is more than 6.30.

Regarding `CN(c1ccc(Nc2ncc(F)c(Nc3ccc4c(c3)oc(=O)n4C)n2)cc1)S(C)(=O)=O` [Compound I-97, N2-((4-methylsulfonyl-N-methylamino)phenyl)-N4-(3-methyl-2-oxo-2,3-dihydrobenzo[d]oxazol-6-yl)-5-fluoropyrimidine-2,4-diamine], the pIC50 was less than 5.00.

For `Cc1cnc(Nc2ccc(N3CCC(F)(F)CC3)c(F)c2)nc1Nc1ccc2oc(=O)[nH]c2c1` [Compound I-275, N2-[4-(4,4-difluoropiperidinyl)-3-fluoro]phenyl-5-methyl-N4-(2-oxo-2,3-dihydro-1,3-benzoxazol-5-yl)-2,4-pyrimidinediamine], the pIC50 is more than 6.30.

As a reminder, the pIC50 is the negative decadic logarithm of the IC50, by convention in mol/L.
